These are literature values, as cited in patent US20110075702A1, “THERMAL SENSING EQUIPMENT AND THERMAL SENSING PROCESS” (JOHNSON CONTROLS TECHNOLOGY COMPANY, priority 2007, published 2011).

For data set [1] the following is noted: @ 20° C. (68° F.).

Turning to `CC(=O)OCC(C)OC(C)=O` (stereo not shown) [THERMAL FLUID #2, propylene glycol diacetate], the “Solubility in Water” value in data set [1] was 77 mg/mL. The “NFPA Fire” value (NFPA fire diamond Flammability Value) is 2. Also, under “NFPA fire diamond Health Value”, the “NFPA Health” value was 1. In addition, the “NFPA Reactivity” value (NFPA fire diamond Reactivity Value) is recorded as 0.
